From patent US5284834A, “Adenosine functionalized congeners as cardiovascular treating agents for animals and methods for using same” (priority 1992, dated 1994)
Entries after “also recorded” stand apart in the source; their conditions may differ. Where two headings read alike, the source gives them in different places.

Columns and labels:
[1] = molecular target: T1, Coronary A2-Adenosine Receptor (Canis lupus familiaris, UniProt P11617); assay: Coronary vasoactivity in the anesthetized, open-chest dog (intracoronary infusion; MPR from EC50); type: in vivo; details: for A2 Receptor MPR Relative to MeAdo: molar potency ratio relative to N6-methyladenosine (set equal to 1.0); for A2 Receptor MPR Relative to MeAdo / A2 Receptor MPR Relative to Ado: coronary; for A2 Receptor MPR Relative to Ado: molar potency ratio: EC50 of adenosine divided by that of the analogue; for A2/A1 potency ratio (MPR(A2)/MPR(A1)): ratio of MPR (MeAdo) at dog coronary A2 receptor to MPR at rat brain A1 receptor; for coronary vasoactivity (in words): intracoronary infusion; for A2 versus A1 receptor selectivity (in words): dog coronary A2 versus rat brain A1
T1 construct: The assay of coronary vasoactivity in the anesthetized, open-chest dog; from tissue; host or cells: coronary vessels in situ, anesthetized open-chest dog
T1 sequence (P11617 whole entry, the tested form may be a part): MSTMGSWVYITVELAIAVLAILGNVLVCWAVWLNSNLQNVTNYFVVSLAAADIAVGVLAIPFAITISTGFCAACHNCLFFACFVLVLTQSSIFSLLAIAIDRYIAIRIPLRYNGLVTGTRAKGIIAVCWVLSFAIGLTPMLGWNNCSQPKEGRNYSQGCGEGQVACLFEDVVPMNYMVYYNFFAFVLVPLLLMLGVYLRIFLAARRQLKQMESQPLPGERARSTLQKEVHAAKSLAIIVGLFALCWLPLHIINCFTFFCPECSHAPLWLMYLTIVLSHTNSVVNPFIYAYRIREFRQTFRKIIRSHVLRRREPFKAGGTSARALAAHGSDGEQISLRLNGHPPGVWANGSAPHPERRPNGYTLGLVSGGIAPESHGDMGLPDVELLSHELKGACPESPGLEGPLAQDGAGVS
From the text: (§1) In the present invention there is compared the A1 - and A2 -potencies of a series of long-chain derivatives of adenosine suitable for attachment to "carriers," such as peptides or proteins, and for immobilization to polymeric matrices for affinity chromatography of adenosine receptors. The method employed is a comparison of increasing coronary blood flow via activation of an A2 -adenosine receptor versus an A1 -binding assay in rat brain.
(§2) The potencies at A2 -receptors (Table 1) are expressed as a molar potency ratio of the EC50 value of adenosine divided by that of the adenosine analogue. A common reference compound on which to base molar potency ratios was needed to facilitate comparison of activities at A1 and A2 receptors. Adenosine itself cannot be used as a reference in the A1 binding assay since treatment of the membranes with adenosine deaminase is essential. […] Thus, MeAdo was used as a suitable reference compound.
The assay of coronary vasoactivity in the anesthetized, open-chest dog, is described by Kusachi et al, J. Med. Chem., in press, and Olsson, et al, J. Circ. […] The assay estimates an EC-50, the concentration of analogue which produces a half maximum change in coronary conductance (reciprocal resistance). To reduce between-animal variability activity is expressed as a molar potency ratio (MPR) the value of the EC-50 of adenosine divided by that of the analogue. Owing to the low water solubility of some of the analogues, solutions for intracoronary infusion were prepared by diluting stock solutions in dimethyl sulfoxide. In such instances, solutions of adenosine used to establish a standard of potency also contained dimethyl sulfoxide. […]

[2] = molecular target: T2, Brain A1-adenosine receptor (Rattus norvegicus, UniProt P25099); assay: A1-binding assay: antagonism of binding of 1nM [3H]N6-cyclohexyladenosine to rat cerebral cortical membranes; details: for A1 Receptor MPR Relative to MeAdo: molar potency ratio derived from Ki values, rat cerebral cortical membranes
T2 construct: -cyclohexyladenosine to rat cerebral cortical membranes; from tissue; host or cells: rat cerebral cortical membranes
T2 sequence (P25099 1-326): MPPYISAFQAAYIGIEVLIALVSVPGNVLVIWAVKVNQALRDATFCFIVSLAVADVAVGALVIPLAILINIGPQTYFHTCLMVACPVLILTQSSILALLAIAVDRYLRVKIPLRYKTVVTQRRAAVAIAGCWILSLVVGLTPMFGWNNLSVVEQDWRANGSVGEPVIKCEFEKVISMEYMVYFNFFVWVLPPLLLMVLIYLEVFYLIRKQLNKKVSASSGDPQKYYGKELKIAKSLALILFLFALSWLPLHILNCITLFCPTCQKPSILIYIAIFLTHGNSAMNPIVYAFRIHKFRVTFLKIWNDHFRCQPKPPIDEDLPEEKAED
From the text: as §1
^b Molar potency ratio relative to adenosine, derived from Ki
values for antagonism of binding of 1nM [^3 H]N^6
-cyclohexyladenosine to rat cerebral cortical membranes.
as §2

[3] = Octanol water partition coefficients; type: physicochemical; details: for logP: octanol water, read-out: octanol water partition coefficient
From the text: B. Certain of the conjugates have ionizable groups on the attached chain. These groups alter the biodistribution of the compounds and make them less likely to enter the brain and produce central depressant effects. The effect of charged groups is reflected in octanol water partition coefficients as follows: […]

[4] = Entry into the brain and central side effects; details: in vivo
A1-receptors = details: background; cited from earlier work
[5] = molecular target: T3, A2-adenosine receptor (adenylate cyclase, human platelet membranes) (Homo sapiens, UniProt P29274); assay: Stimulation of adenylate cyclase in human platelet membranes; type: biochemical
T3 construct: stimulation of adenylate cyclase in human platelet membranes; from tissue; host or cells: human platelet membranes
T3 sequence (P29274 whole entry): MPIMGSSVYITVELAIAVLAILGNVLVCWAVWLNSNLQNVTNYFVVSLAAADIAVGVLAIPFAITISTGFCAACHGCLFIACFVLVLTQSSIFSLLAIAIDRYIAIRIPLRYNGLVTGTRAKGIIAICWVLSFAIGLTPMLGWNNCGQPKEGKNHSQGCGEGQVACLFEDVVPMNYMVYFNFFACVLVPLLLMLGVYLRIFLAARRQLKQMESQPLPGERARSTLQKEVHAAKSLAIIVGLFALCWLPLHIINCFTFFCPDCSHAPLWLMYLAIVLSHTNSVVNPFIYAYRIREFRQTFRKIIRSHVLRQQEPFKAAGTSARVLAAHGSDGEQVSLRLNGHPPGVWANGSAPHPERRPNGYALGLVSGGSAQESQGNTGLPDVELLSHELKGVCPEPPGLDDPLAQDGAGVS

Molecule | A2 Receptor MPR Relative to MeAdo ([1]; dog) | A2 Receptor MPR Relative to Ado ([1]; dog) | A2/A1 potency ratio (MPR(A2)/MPR(A1)) [1] | A1 Receptor MPR Relative to MeAdo [2] | coronary vasoactivity (in words) ([1]; dog) | other results
Nc1nc(Cl)nc2c1ncn2[C@@H]1O[C@H](CO)[C@@H](O)[C@H]1O [Compound 2, 2-Chloroadenosine, reference compound] | 540 | 27 | 54 | 10 | – | –
CNc1ncnc2c1ncn2[C@@H]1O[C@H](CO)[C@@H](O)[C@H]1O [Compound 3, N^6 -methyladenosine, reference compound] | 1.0 | 0.05 | 1.0 | 1.0 | – | fold weaker than adenosine at A2-receptors ([1]; dog, in vivo): ≥ 20 -fold; fold weaker than adenosine at A1-receptors [2]: at least 10 -fold
C[C@H](Cc1ccccc1)Nc1ncnc2c1ncn2[C@@H]1O[C@H](CO)[C@@H](O)[C@H]1O [Compound 4, N^6 -R-1-Phenyl-2-propyladenosine] | – | – | – | – | – | logP [3]: 2; brain entry [4]: enters the brain; central side effects [4]: produces central side effects; order of potency at A1-receptors (A1-receptors): R-PIA, CHA>NECA>S-PIA
OC[C@H]1O[C@@H](n2cnc3c(NC4CCCCC4)ncnc32)[C@H](O)[C@@H]1O [Compound 5, N^6 -cyclohexyladenosine] | – | – | – | – | – | order of potency at A1-receptors (A1-receptors): R-PIA, CHA>NECA>S-PIA
OC[C@H]1O[C@@H](n2cnc3c(Nc4ccccc4)ncnc32)[C@H](O)[C@@H]1O [Compound 6, N^6 -phenyladenosine, reference compound] | 28 | 1.4 | 1.6 | 18 | can exhibit some activity at this A2 -receptor | –
Cc1ccc(Nc2ncnc3c2ncn3[C@@H]2O[C@H](CO)[C@@H](O)[C@H]2O)cc1 [Compound 7, N^6 -p-tolyladenosine, reference compound] | 27 | 1.35 | 1.1 | 24 | can exhibit some activity at this A2 -receptor | –
O=C(O)Cc1ccc(Nc2ncnc3c2ncn3[C@@H]2O[C@H](CO)[C@@H](O)[C@H]2O)cc1 [Compound 8, N^6-(4-carboxymethylphenyl)adenosine] | – | – | – | 0.29 | only weakly active | % increase in flow over control ([1]; @ 21 μM plasma nucleoside concentration achieved during infusion): 27%; A1-binding activity (in words) [2]: only weakly active; IC50 ([5]; human platelet membranes, read-out: IC50 (printed lC50), stimulation of adenylate cyclase): 26 µM; polarity compared with compound 4 [3]: considerably more polar than 4; logP [3]: < -1.4
CNC(=O)Cc1ccc(Nc2ncnc3c2ncn3[C@@H]2O[C@H](CO)[C@@H](O)[C@H]2O)cc1 [Compound 9] | – | – | – | – | enhanced activity at both receptor subtypes | –
Cc1ccc(NC(=O)Cc2ccc(Nc3ncnc4c3ncn4[C@@H]3O[C@H](CO)[C@@H](O)[C@H]3O)cc2)cc1 [Compound 10] | 42 | 2.1 ± 1.3 | 1.2 | 35 | enhanced activity at both receptor subtypes | A1-binding activity (in words) [2]: enhanced activity at both receptor subtypes
COC(=O)[C@H](Cc1ccc(NC(=O)Cc2ccc(Nc3ncnc4c3ncn4[C@@H]3O[C@H](CO)[C@@H](O)[C@H]3O)cc2)cc1)NC(=O)C(F)(F)F [Compound 11] | 60 | 3.0 ± 0.7 | greater than 10 | 3.3 | – | A2/A1 potency ratio (MPR(A2)/MPR(A1)) ([1]; listed as drawing 6): 18
CNC(=O)CNC(=O)[C@H](Cc1ccc(NC(=O)Cc2ccc(Nc3ncnc4c3ncn4[C@@H]3O[C@H](CO)[C@@H](O)[C@H]3O)cc2)cc1)NC(=O)OC(C)(C)C [Compound 12] | 88 | 4.4 ± 0.4 | greater than 10 | 4.6 | – | A2/A1 potency ratio (MPR(A2)/MPR(A1)) ([1]; listed as drawing 7): 19
COC(=O)Cc1ccc(NC(=O)Cc2ccc(Nc3ncnc4c3ncn4[C@@H]3O[C@H](CO)[C@@H](O)[C@H]3O)cc2)cc1 [Compound 13] | 64 | 33.2 ± 1.6 | 2.7 | 24 | – | –
CNC(=O)Cc1ccc(NC(=O)Cc2ccc(Nc3ncnc4c3ncn4[C@@H]3O[C@H](CO)[C@@H](O)[C@H]3O)cc2)cc1 [Compound 14] | ≥ 100 | 7.2 ± 1443 | – | 9.0 | three most active analogues | A2 versus A1 receptor selectivity (in words) [1]: highly divergent at A1 and A2 receptors
NNC(=O)Cc1ccc(NC(=O)Cc2ccc(Nc3ncnc4c3ncn4[C@@H]3O[C@H](CO)[C@@H](O)[C@H]3O)cc2)cc1 [Compound 15] | 70 | 3.5 ± 0.8 | 5.3 | 13 | – | –
NCCNC(=O)Cc1ccc(NC(=O)Cc2ccc(Nc3ncnc4c3ncn4[C@@H]3O[C@H](CO)[C@@H](O)[C@H]3O)cc2)cc1 [Compound 16] | – | 7.8 ± 2.5 | – | – | three most active analogues; also recorded: high efficacy as a coronary vasodilator | IC50 [5]: 0.98 µM; polarity compared with compound 4 [3]: considerably more polar than 4; logP [3]: -0.81
O=C(CCc1ccc(O)cc1)NCCNC(=O)Cc1ccc(NC(=O)Cc2ccc(Nc3ncnc4c3ncn4[C@@H]3O[C@H](CO)[C@@H](O)[C@H]3O)cc2)cc1 [Compound 17] | 56 | 2.8 ± 0.1 | 4.2 | 13 | – | –
O=C(CCCC[C@@H]1SC[C@@H]2NC(=O)N[C@@H]21)NCCNC(=O)Cc1ccc(NC(=O)Cc2ccc(Nc3ncnc4c3ncn4[C@@H]3O[C@H](CO)[C@@H](O)[C@H]3O)cc2)cc1 [Compound 18] | 60 | 3.0 ± 0.2 | – | 5.5 | – | A2 versus A1 receptor selectivity (in words) [1]: highly divergent at A1 and A2 receptors
C[C@@H](Cc1ccccc1)Nc1ncnc2c1ncn2[C@@H]1O[C@H](CO)[C@@H](O)[C@H]1O [S-PIA] | – | – | – | – | – | order of potency at A1-receptors (A1-receptors): R-PIA, CHA>NECA>S-PIA
Avidin | – | – | – | – | lacked coronary vasoactivity | –
